Data set [1] has as its system androgen-independent prostate cancer (AIPC). The data set can be described thus: Survival by CYP1B1*3 genotype in men with AIPC treated with docetaxel (Kaplan-Meier). Type of data set: in vivo, human. The note with it: for overall median survival: docetaxel 30 mg/m^2 1-hour i.v. weekly for 3 weeks, 1-week rest. Here is the method:
FIG. 1 depicts Kaplan-Meier curves of overall survival (o-CYP1B1*3; *-CYP1B1*1/*1 and CYP1B1*1/*3) (A) and overall progression free survival (B) in men with prostate cancer treated with docetaxel as a function of CYP1B1*3 genotype. All patients received docetaxel as a 1-hour intravenous infusion at a dose of 30 mg/m^2 in cycles of once every week for 3 consecutive weeks, followed by a 1-week rest period (n=25). DNA was extracted from a […] using a QiaBlood extraction kit (Qiagen, Valencia, Calif.) and stored at 4° C. The CYP1B1*3 alleles were analyzed by direct sequencing. The primers used for sequencing and amplification of the variant were as follows: F4-[…]; R4-[…]; F5-[…]; R5-[…]. A 50-μl reaction was prepared for polymerase chain reaction (PCR) amplification using primers F4 and R4. The reaction consisted of 1×PCR buffer, 2 mM of each of the four deoxynucleotidetriphosphates (dNTPs), 1.5 mM magnesium chloride, and 1 unit of Platinum Taq DNA polymerase. PCR conditions were: 94° C. for 5 minutes, followed by 40 cycles of 94° C. for 30 seconds, 66° C. for 30 seconds, and 72° C. for 30 seconds, with a final 7-minute cycle at 72° C. Direct nucleotide sequencing PCR was conducted using the Big Dye Terminator Cycle Sequencing Ready Reaction kit V1.1 on an ABI Prism 310 Genetic Analyzer (Applied BioSystems, Foster City, Calif.).
The CYP1B1 genotypes on germline DNA obtained from 25 men with AIPC treated with docetaxel (Aventis Pharmaceuticals, Bridgewater, N.J.) were retrospectively evaluated. The subjects were administered docetaxel intravenously over 1-hour at a dose of 30 mg/m^2 in whom detailed survival data were available (Table 1). Inclusion and exclusion criteria have been previously published (12). The study protocol was approved by the Institutional Review Board (Bethesda, Md.), and all patients provided written informed consent. DNA was isolated from whole blood and variants in the CYP1B1 gene were analyzed by direct nucleotide sequencing (see Legend to FIG. 1). The association between genotypes and progression-free survival and overall survival was determined by the Kaplan-Meier method using a two-tailed log rank test. The homozygous wild-type (CYP1B1*1/*1) and heterozygous variant (CYP1B1*1/*3) genotypes were pooled in the analysis on the basis of similarity of outcomes. The associated p-value was adjusted to be two times the unadjusted value to account for the two implicit comparisons made in determining the desirability of combining groups. Progression was censored at the off study date if a patient was removed for toxicity or another reason.

For data set [2], the target named is T1, CYP1B1 (Homo sapiens, UniProt Q16678).
T1 sequence (Q16678 1-543): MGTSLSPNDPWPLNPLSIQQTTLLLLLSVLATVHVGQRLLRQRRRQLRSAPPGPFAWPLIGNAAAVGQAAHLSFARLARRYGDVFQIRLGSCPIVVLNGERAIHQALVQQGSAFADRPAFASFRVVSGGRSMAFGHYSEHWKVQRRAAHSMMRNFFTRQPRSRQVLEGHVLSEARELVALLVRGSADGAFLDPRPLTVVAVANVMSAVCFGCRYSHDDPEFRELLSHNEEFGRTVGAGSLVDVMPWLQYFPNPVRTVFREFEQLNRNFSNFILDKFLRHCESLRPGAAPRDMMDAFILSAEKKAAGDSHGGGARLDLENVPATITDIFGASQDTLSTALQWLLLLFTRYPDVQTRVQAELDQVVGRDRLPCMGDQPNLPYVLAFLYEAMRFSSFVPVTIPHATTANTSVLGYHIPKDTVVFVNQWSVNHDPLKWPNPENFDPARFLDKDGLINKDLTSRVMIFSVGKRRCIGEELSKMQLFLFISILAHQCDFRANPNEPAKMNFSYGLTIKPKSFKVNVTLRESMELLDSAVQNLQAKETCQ
Conditions: previous preclinical studies (references 2, 3); cited from earlier work.

Data set [3] addresses T1, CYP1B1. The note with it: in vitro studies (reference 16); cited from earlier work.
Data set [4] in a line: Docetaxel clearance as a function of CYP1B1*3 genotype in 23 patients. Conditions: human, in vivo, P=0.39. The method, then:
To exclude the possibility that the observed decreased survival time for subjects carrying the CYP1B1*3/*3 variant was the result of altered exposure to docetaxel, the pharmacokinetic data generated in a previous study (15) in 23 patients treated with docetaxel as a function of CYP1B1*3 genotype was analyzed.

The test system of data set [5] is transfected Chinese hamster ovary cells. Conditions: reversible by chemical inhibition (references 2, 3); cited from earlier work.

Consider one molecule from US20100280084A1, “Cyp1B1 Genotype” (Government of the US, as represented by the Secret ary, …, priority 2005, published 2010).

Usually clearance stands for the volume of plasma or blood freed of the substance per unit of time. Read a high clearance as a high capacity for elimination.

As for `CC(=O)O[C@@]12CO[C@@H]1C[C@H](O)[C@@]1(C)C(=O)[C@H](O)C3=C(C)[C@@H](OC(=O)[C@H](O)[C@@H](NC(=O)OC(C)(C)C)c4ccccc4)C[C@@](O)([C@@H](OC(=O)c4ccccc4)[C@H]21)C3(C)C` [docetaxel], the overall median survival in data set [1] (5 patients homozygote variant (CYP1B1*3/*3)) was 7.5 months; in data set [1] (7 wild type plus 13 heterozygotes (CYP1B1*1/*1 and *1/*3 pooled)), 15.3 months. Also, the progression free survival in data set [1] (CYP1B1*3/*3 variant, P=0.13 versus pooled genotypes) came to 3.3 months; in data set [1] (pooled wild type and heterozygous genotypes, P=0.13 versus CYP1B1*3/*3), 6.2 months. For the same molecule, in data set [1] (CYP1B1*3/*3 versus pooled wild type and heterozygotes, P=0.012), the “decrease in median survival time” value turned out to be 7.8 months. The “inhibition of CYP1B1-mediated ethoxyresorufin O-deethylation” value on CYP1B1 [2] is “competitively inhibits”. Moreover, the “metabolism by CYP1B1” value on CYP1B1 [3] is reported as “not directly metabolized by CYP1B1”. For the same molecule, the clearance is 533 mL/min in data set [4] (patients homozygous for the variant allele, 95% CI 26.9 to 37.0 L/h) and 637 mL/min in data set [4] (patients homozygous or heterozygous for the wild-type allele, 95% CI 27.5 to 48.9 L/h). Also, the “effect of CYP1B1 overexpression on cellular sensitivity to docetaxel” value in data set [5] was “docetaxel resistance”.
